Values after ≈ are worked out from the molar mass of the structure shown. Values joined by “and” are separate entries in the source; they are usually repeats but may differ in a detail not shown here. Identical values can stand only once.
Tests used:
human P2X3 receptor = target: T1, human P2X3 receptor (Homo sapiens, UniProt P56373); assay: Cellular in vitro assay for determination of P2X3 receptor activity (CHO cells, photina luminescence, agonist alpha-beta-methylene-ATP); assay type: cell-based; details: antagonist activity at human P2X3 receptors, recombinant CHO cells, alpha-beta-methylene-ATP at EC50; read-out: Target IC50
T1 construct: expressed in transfected cells; host or cells: CHO (Chinese hamster ovary) cells, stably co-transfected with mitochondrial photina
T1 sequence (P56373 1-397): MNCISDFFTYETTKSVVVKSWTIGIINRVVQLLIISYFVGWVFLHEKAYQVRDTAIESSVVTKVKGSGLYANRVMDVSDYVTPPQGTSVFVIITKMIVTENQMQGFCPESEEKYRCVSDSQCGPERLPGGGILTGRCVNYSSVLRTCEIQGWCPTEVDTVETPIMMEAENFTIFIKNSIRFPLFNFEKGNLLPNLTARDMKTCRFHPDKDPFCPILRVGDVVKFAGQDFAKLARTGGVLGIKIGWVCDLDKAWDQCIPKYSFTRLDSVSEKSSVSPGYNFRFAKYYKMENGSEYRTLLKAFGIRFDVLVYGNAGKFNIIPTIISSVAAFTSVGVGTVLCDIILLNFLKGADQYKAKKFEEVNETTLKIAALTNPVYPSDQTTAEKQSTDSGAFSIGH
Method: Cellular In Vitro Assay for Determination of P2X3 Receptor Activity
The determination of antagonistic activity at the P2X3 receptor of the compounds of the invention was performed by use of a recombinant cell line. These cell line derives originally from the Chinese hamster ovary (CHO) cell line (Tjio J. H.; Puck T. T., 1958, J. Exp. Med. 108: 259-271). The cell line is stably transfected with the human P2X3 receptor and a calcium-sensitive photoprotein, mitochondrial photina, which, after reconstitution with the cofactor coelenterazine, emits light in dependence of calcium binding [Bovolenta S, Foti M, Lohmer S, Corazza S., J Biomol Screen. 2007 August; 12(5):694-704]. The strength of the photina luminescence signal corresponds to the level of receptor activation upon agonist binding. An inhibitor would decrease the signal depending on its potency and concentration. Bioluminescence was detected using a suitable luminometer [Milligan G, Marshall F, Rees S, Trends in Pharmacological Sciences 17, 235-237 (1996)].
On the day before the assay, the cells are plated out in culture medium (DMEM/F12 (PAN, P04-41451), 10% FCS) in 384-well microtiter plates and kept in a cell incubator (96% humidity, 5% v/v CO2, […]). On the day of the assay medium is replaced by 2 mM Ca-tyrode buffer (20 mM HEPES, 130 mM NaCl, 5 mM KCl, 5 mM NaHCO3, 2 mM MgCl2, pH 7.4) containing 5 μg/ml coelenterazine. Plates are incubated for 3 hours at 37° C. (96% humidity, 5% v/v CO2). After incubation the test substances in various concentrations are placed for 10 minutes in the wells of the microtiter plate before the agonist alpha-beta-methylene-ATP at EC50 concentration is added. The resulting light signal is measured immediately in the luminometer.
The examples were tested in quadruples per plate and mean values were used to determine IC50 values at the human P2X3 receptors and percentage of maximal inhibition.

[1] = High throughput aqueous solubility in phosphate buffer pH 6.5; assay type: physicochemical; details: for solubility at 24 h: aqueous buffer, kinetic from dmso stock, phosphate buffer pH 6.5, 1% DMSO, 24 hrs at room temperature; for solubility compared to example 11 of WO2016/091776 A1: aqueous, pH 6.5
Method: Examples were tested for its solubility in aqueous media (pH 6.5). Examples were synthesized one or more times in accordance with the above-described protocols. When synthesized more than once, data from solubility assays represent average values or median values calculated utilizing data sets obtained from testing of one or more synthetic batch.
The high throughput screening method to determine aqueous drug solubility is based on Thomas Onofrey and Greg Kazan, Performance and correlation of a 96-well high throughput screening method to determine aqueous drug solubility, Millipore Corporation Application Note, 2003; Lit. No. AN1731EN00.
The assay was run in a 96-well plate format. Each well was filled with an individual compound.
All pipetting steps were performed using a robot platform.
100 μl of a 10 mmolar solution of drug in DMSO were concentrated by vacuum centrifugation and resolved in 10 μl DMSO. 990 μl phosphate buffer pH 6.5 were added. The content of DMSO amounts to 1%. The multititer plate was put on a shaker and mixed for 24 hrs at room temperature. 150 μl of the suspension were transferred to a filtration plate. […] A second microtiter plate with 20 μl of a 10 mM solution of drug in DMSO served for calibration. Two concentrations ([…]) were prepared by dilution in DMSO/water 1:1 and used for calibration. Filtrate and calibration plates were quantified by HPLC-MS/MS.
Chromatographic conditions were as follows:
HPLC column: Ascentis Express C18 4.6×30 mm 2.7 μm
Mobile phase: A: Water/0.05% HCOOH • B: Acetonitrile/0.05% HCOOH • 0 min→95% A 5% B • 0.75 min→5% A 95% B • 2.75 min→5% A 95% B • 2.76 min→95% A 5% B • 3 min→95% A 5% B
The areas of sample- and calibration injections were determined by using mass spectrometry software (AB SCIEX: Discovery Quant 2.1.3. and Analyst 1.6.1). The solubility value was obtained by interpolation from the calibration curve.

[2] = In vitro metabolic stability in human liver microsomes; assay type: in vitro ADME; details: for CLblood: hepatic in vivo blood clearance calculated from half-life in human liver microsomes, 1 μM, well-stirred model; for metabolic stability compared to example 11 of WO2016/091776 A1: human liver microsomes; for Fmax: maximal oral bioavailability calculated from human liver microsome clearance
Method: Examples were tested for its metabolic stability in human liver microsomes. Examples were measured one or more times. When measured more than once, data from metabolic stability assays represent average values or median values calculated utilizing data sets obtained from testing of one or more synthetic batch.
In vitro metabolic stability was determined by incubating a solution of test compounds in dimethylsulfoxide (DMSO) and acetonitrile at 1 μM in a suspension of liver microsomes in 100 mM phosphate buffer, pH7.4 (NaH2PO4×H2O+Na2HPO4×2H2O) and at a protein concentration of 0.5 mg/mL at 37° C. The microsomes were activated by adding a co-factor mix containing 8 mM Glucose-6-Phosphat, 4 mM MgCl2; 0.5 mM NADP and 1 IU/ml G-6-P-Dehydrogenase in phosphate buffer, pH 7.4. The metabolic assay was started shortly afterwards by adding the test compound to the incubation at a final volume of 1 mL. Organic solvent was limited to ≤0.01% dimethylsulfoxide (DMSO) and ≤1% acetonitril. During incubation, the microsomal suspensions were continuously shaken at 580 rpm and aliquots were taken at 2, 8, 16, 30, 45 and 60 min, to which equal volumes of cold methanol were immediately added. Samples were frozen at −20° C. over night, subsequently centrifuged for 15 minutes at 3000 rpm and the supernatant was analyzed with an Agilent 1200 HPLC-system with LCMS/MS detection.
The half-life of a test compound was determined from the concentration-time plot. From the half-life the intrinsic clearances were calculated. Together with the additional parameters liver blood flow, specific liver weight and microsomal protein content the hepatic in vivo blood clearance (CL) and the maximal oral bioavailability (Fmax) were calculated for the different species. The hepatic in vivo blood clearance (CLblood) and the maximal oral bioavailability (Fmax) was calculated using the following formulae: CL′intrinsic [ml/(min*kg)]=kel [1/min]/((mg protein/volume of incubation [ml])*fu,inc)*(mg protein/liver weight [g])*(specific liver weight [g liver/kg body weight]); CLblood well-stirred [L/(h*kg)]=(QH [L/(h*kg)]*fu,blood*CL′intrinsic [L/(h*kg)])/(QH [L/(h*kg)]+fu,blood*CL′intrinsic [L/(h*kg)]); Fmax=1−CLblood/QH and using the following parameter values: QH (Liver blood flow): 1.32 L/h/kg (human), 2.1 L/h/kg (dog), 4.2 L/h/kg (rat); specific liver weight: 21 g/kg (human), 39 g/kg (dog), 32 g/kg (rat); microsomal protein content: 40 mg/g. fu,inc and fu,blood is taken as 1 with fu,inc being the unbound fraction (ie the non-protein bound fraction) in the incubation experiment, and fu,blood being the unbound fraction in blood.

IC50 (human P2X3 receptor) [nM]	solubility at 24 h [1] [µg/mL]	solubility compared to example 11 of WO2016/091776 A1 [1]	CLblood [2]	Fmax [2]	Compound	metabolic stability compared to example 11 of WO2016/091776 A1 [2]
5.1	96.5 (≈ 194 µM)	significantly improved solubility	0.017 mL/min/kg	100%	Cc1cnc(-c2cc(O[C@@H](CO)CCO)cc(C(=O)N[C@H](C)c3cnc(C(F)(F)F)nc3)c2)s1 [Example 2, 3-{[(2R)-1,4-dihydroxybutan-2-yl]oxy}-5-(5-methyl-1,3-thiazol-2-yl)-N-{(1R)-1-[2-(trifluoromethyl)pyrimidin-5-yl]ethyl}benzamide]	significantly improved metabolic stability
12	1190 (≈ 2330 µM)	significantly improved solubility	0.017 mL/min/kg	100%	Cc1cnc(-c2cc(O[C@@H](CO)CC(=O)O)cc(C(=O)N[C@H](C)c3cnc(C(F)(F)F)nc3)c2)s1 [Example 3, (3R)-4-hydroxy-3-[3-(5-methyl-1,3-thiazol-2-yl)-5-({(1R)-1-[2-(trifluoromethyl)-pyrimidin-5-yl]ethyl}carbamoyl)phenoxy]butanoic acid]	significantly improved metabolic stability
	2.9 (≈ 6.06 µM)		8.67 mL/min/kg and 4.5 mL/min/kg	61% and 79%	Cc1cnc(-c2cc(O[C@@H]3CCOC3)cc(C(=O)N[C@H](C)c3cnc(C(F)(F)F)nc3)c2)s1 [example 11 of WO2016/091776 A1, 3-(5-Methyl-1,3-thiazol-2-yl)-5-[(3R)-tetrahydrofuran-3-yloxy]-N-{(1R)-1-[2-(trifluoro-methyl)pyrimidin-5-yl]ethyl}benzamide, reference compound]	

Compound	IC50 (human P2X3 receptor) [nM]	solubility at 24 h [1] [µg/mL]	solubility compared to example 11 of WO2016/091776 A1 [1]	CLblood [2]	Fmax [2]	metabolic stability compared to example 11 of WO2016/091776 A1 [2]
{[(3R,5R)-5-Hydroxytetrahydrofuran-3-yl]oxy}-5-(5-methyl-1,3-thiazol-2-yl)-N-{(1R)-1-[2-(trifluoromethyl)pyrimidin-5-yl]ethyl}benzamide and {[(3R,5S)-5-hydroxytetrahydrofuran-3-yl]oxy}-5-(5-methyl-1,3-thiazol-2-yl)-N-{(1R)-1-[2-(trifluoromethyl)pyrimidin-5-yl]ethyl}benzamide [Example 1]	20			14.5 mL/min/kg	34%	

— US20230013419A1, “ANALOGUES OF 3-(5-METHYL-1,3-THIAZOL-2-YL)-N-{(1R)-1-[2-(TRIFLUORO-METHYL)PYRIMIDIN-5-YL]ETHYL}BENZAMIDE” (Bayer Aktiengesellschaft, priority 2019, published 2023)
